Results reported in the NIST ThermoML archive (doi:10.1021/je060271a).
“And” between values parts separate entries of the source, which are not always exact repeats. Equal entries are not always repeated. Numbers after ± are expanded uncertainties.

Details: Liquid, Vibrating tube method

CCCCC(=O)OCC(COC(=O)CCCC)(COC(=O)CCCC)COC(=O)CCCC [pentaerythritol tetrapentanoate]
Details | mass density
323.15 K, 31189 kPa | 1015 ± 1.2 kg/m3
323.15 K, 31223 kPa | 1015.1 ± 1.2 kg/m3
323.15 K, 31256 kPa | 1015.1 ± 1.2 kg/m3
323.15 K, 31290 kPa | 1015.1 ± 1.2 kg/m3
323.15 K, 31330 kPa | 1015.1 ± 1.2 kg/m3
323.15 K, 31363 kPa | 1015 ± 1.2 kg/m3
323.15 K, 31397 kPa | 1015.2 ± 1.2 kg/m3
323.15 K, 31438 kPa | 1015.2 ± 1.2 kg/m3
323.15 K, 31473 kPa | 1015.2 ± 1.2 kg/m3
323.15 K, 31507 kPa | 1015.2 ± 1.2 kg/m3
323.15 K, 31540 kPa | 1015.3 ± 1.2 kg/m3
323.15 K, 31581 kPa | 1015.3 ± 1.2 kg/m3
323.15 K, 31615 kPa | 1015.4 ± 1.2 kg/m3
323.15 K, 31649 kPa | 1015.3 ± 1.2 kg/m3
323.15 K, 31689 kPa | 1015.3 ± 1.2 kg/m3
323.15 K, 31724 kPa | 1015.3 ± 1.2 kg/m3
323.15 K, 31758 kPa | 1015.3 ± 1.2 kg/m3
323.15 K, 31794 kPa | 1015.4 ± 1.2 kg/m3
323.15 K, 31834 kPa | 1015.5 ± 1.2 kg/m3
323.15 K, 31869 kPa | 1015.4 ± 1.2 kg/m3
323.15 K, 31914 kPa | 1015.4 ± 1.2 kg/m3
323.15 K, 31941 kPa | 1015.6 ± 1.2 kg/m3
323.15 K, 31982 kPa | 1015.4 ± 1.2 kg/m3
323.15 K, 32017 kPa | 1015.6 ± 1.2 kg/m3
323.15 K, 32052 kPa | 1015.6 ± 1.2 kg/m3
323.15 K, 32093 kPa | 1015.7 ± 1.2 kg/m3
323.15 K, 32128 kPa | 1015.6 ± 1.2 kg/m3
323.15 K, 32170 kPa | 1015.7 ± 1.2 kg/m3
323.15 K, 32206 kPa | 1015.7 ± 1.2 kg/m3
323.15 K, 32240 kPa | 1015.6 ± 1.2 kg/m3
323.15 K, 32283 kPa | 1015.7 ± 1.2 kg/m3
323.15 K, 32318 kPa | 1015.7 ± 1.2 kg/m3
323.15 K, 32354 kPa | 1015.8 ± 1.2 kg/m3
323.15 K, 32398 kPa | 1015.8 ± 1.2 kg/m3
323.15 K, 32434 kPa | 1015.8 ± 1.2 kg/m3
323.15 K, 32470 kPa | 1015.8 ± 1.2 kg/m3
323.15 K, 32513 kPa | 1015.7 ± 1.2 kg/m3
323.15 K, 32550 kPa | 1015.9 ± 1.2 kg/m3
323.15 K, 32586 kPa | 1015.9 ± 1.2 kg/m3
323.15 K, 32623 kPa | 1015.9 ± 1.2 kg/m3
323.15 K, 32666 kPa | 1016 ± 1.2 kg/m3
323.15 K, 32701 kPa | 1016 ± 1.2 kg/m3
323.15 K, 32745 kPa | 1015.9 ± 1.2 kg/m3
323.15 K, 32782 kPa | 1016.1 ± 1.2 kg/m3
323.15 K, 32820 kPa | 1016 ± 1.2 kg/m3
323.15 K, 32864 kPa | 1016.1 ± 1.2 kg/m3
323.15 K, 32902 kPa | 1016 ± 1.2 kg/m3
323.15 K, 32939 kPa | 1016.1 ± 1.2 kg/m3
323.15 K, 32977 kPa | 1016.1 ± 1.2 kg/m3
323.15 K, 33022 kPa | 1016.1 ± 1.2 kg/m3
323.15 K, 33058 kPa | 1016.2 ± 1.2 kg/m3
323.15 K, 33096 kPa | 1016.1 ± 1.2 kg/m3
323.15 K, 33141 kPa | 1016.2 ± 1.2 kg/m3
323.15 K, 33179 kPa | 1016.3 ± 1.2 kg/m3
323.15 K, 33224 kPa | 1016.3 ± 1.2 kg/m3
323.15 K, 33262 kPa | 1016.2 ± 1.2 kg/m3
323.15 K, 33300 kPa | 1016.2 ± 1.2 kg/m3
323.15 K, 33338 kPa | 1016.3 ± 1.2 kg/m3
323.15 K, 33384 kPa | 1016.4 ± 1.2 kg/m3
323.15 K, 33423 kPa | 1016.4 ± 1.2 kg/m3
323.15 K, 33462 kPa | 1016.3 ± 1.2 kg/m3
323.15 K, 33508 kPa | 1016.5 ± 1.2 kg/m3
323.15 K, 33546 kPa | 1016.4 ± 1.2 kg/m3
323.15 K, 33593 kPa | 1016.5 ± 1.2 kg/m3
323.15 K, 33633 kPa | 1016.5 ± 1.2 kg/m3
323.15 K, 33672 kPa | 1016.4 ± 1.2 kg/m3
323.15 K, 33712 kPa | 1016.4 ± 1.2 kg/m3
323.15 K, 33760 kPa | 1016.6 ± 1.2 kg/m3
323.15 K, 33800 kPa | 1016.5 ± 1.2 kg/m3
323.15 K, 33841 kPa | 1016.5 ± 1.2 kg/m3
323.15 K, 33890 kPa | 1016.6 ± 1.2 kg/m3
323.15 K, 33934 kPa | 1016.6 ± 1.2 kg/m3
323.15 K, 33978 kPa | 1016.7 ± 1.2 kg/m3
323.15 K, 34031 kPa | 1016.8 ± 1.2 kg/m3
323.15 K, 34078 kPa | 1016.7 ± 1.2 kg/m3
323.15 K, 34125 kPa | 1016.7 ± 1.2 kg/m3
323.15 K, 34165 kPa | 1016.8 ± 1.2 kg/m3
323.15 K, 34193 kPa | 1016.8 ± 1.2 kg/m3
323.15 K, 34215 kPa | 1016.8 ± 1.2 kg/m3
323.15 K, 34242 kPa | 1016.9 ± 1.2 kg/m3
323.15 K, 34266 kPa | 1016.9 ± 1.2 kg/m3
323.15 K, 34294 kPa | 1016.8 ± 1.2 kg/m3
323.15 K, 34311 kPa | 1016.8 ± 1.2 kg/m3
323.15 K, 34334 kPa | 1016.9 ± 1.2 kg/m3
323.15 K, 34359 kPa | 1017 ± 1.2 kg/m3
323.15 K, 34383 kPa | 1016.9 ± 1.2 kg/m3
323.15 K, 34414 kPa | 1017 ± 1.2 kg/m3
323.15 K, 34441 kPa | 1016.9 ± 1.2 kg/m3
323.15 K, 34467 kPa | 1016.9 ± 1.2 kg/m3
323.15 K, 34492 kPa | 1017 ± 1.2 kg/m3
323.15 K, 34493 kPa | 1017.1 ± 1.2 kg/m3
323.15 K, 34495 kPa | 1017 ± 1.2 kg/m3
323.15 K, 34498 kPa | 1017 ± 1.2 kg/m3
323.15 K, 34500 kPa | 1017.1 ± 1.2 kg/m3
323.15 K, 34502 kPa | 1017.1 ± 1.2 kg/m3
323.15 K, 34504 kPa | 1017.1 ± 1.2 kg/m3
323.15 K, 34507 kPa | 1017.1 ± 1.2 kg/m3
323.15 K, 34510 kPa | 1017 ± 1.2 kg/m3
343.14 K, 4331.4 kPa | 981.8 ± 1.2 kg/m3
343.14 K, 4369.7 kPa | 981.9 ± 1.2 kg/m3
343.14 K, 4403.1 kPa | 981.9 ± 1.2 kg/m3
343.14 K, 4438.3 kPa | 981.9 ± 1.2 kg/m3
343.14 K, 4480.3 kPa | 982 ± 1.2 kg/m3
343.14 K, 4516.3 kPa | 982 ± 1.2 kg/m3
343.14 K, 4553 kPa | 982.1 ± 1.2 kg/m3
343.14 K, 4648.1 kPa | 982.1 ± 1.2 kg/m3
343.14 K, 4649.8 kPa | 982.1 ± 1.2 kg/m3
343.14 K, 4651.7 kPa | 982.2 ± 1.2 kg/m3
343.14 K, 4656 kPa | 982.2 ± 1.2 kg/m3
343.14 K, 4659.5 kPa | 982 ± 1.2 kg/m3
343.14 K, 4659.7 kPa | 982.3 ± 1.2 kg/m3 and 982.2 ± 1.2 kg/m3
343.14 K, 4661.6 kPa | 982.1 ± 1.2 kg/m3
343.14 K, 4661.9 kPa | 982 ± 1.2 kg/m3
343.14 K, 4662.1 kPa | 982.1 ± 1.2 kg/m3 and 982 ± 1.2 kg/m3
343.14 K, 4662.3 kPa | 982.1 ± 1.2 kg/m3
343.14 K, 4662.4 kPa | 982.2 ± 1.2 kg/m3
343.14 K, 4662.6 kPa | 982.1 ± 1.2 kg/m3
343.14 K, 4662.8 kPa | 982.1 ± 1.2 kg/m3
343.14 K, 4663.1 kPa | 982.1 ± 1.2 kg/m3
343.14 K, 4671.9 kPa | 982.1 ± 1.2 kg/m3
343.14 K, 4688.2 kPa | 982 ± 1.2 kg/m3
343.14 K, 4712.1 kPa | 982.2 ± 1.2 kg/m3
343.14 K, 4732.7 kPa | 982.3 ± 1.2 kg/m3
343.14 K, 4774.6 kPa | 982.2 ± 1.2 kg/m3
343.14 K, 4799.7 kPa | 982.2 ± 1.2 kg/m3
343.14 K, 4821 kPa | 982.3 ± 1.2 kg/m3
343.14 K, 4842.3 kPa | 982.4 ± 1.2 kg/m3
343.14 K, 4868.4 kPa | 982.4 ± 1.2 kg/m3
343.14 K, 4886.2 kPa | 982.3 ± 1.2 kg/m3
343.14 K, 4912.7 kPa | 982.3 ± 1.2 kg/m3
343.14 K, 21139 kPa | 994 ± 1.2 kg/m3
343.14 K, 21166 kPa | 994 ± 1.2 kg/m3
343.14 K, 21194 kPa | 994.3 ± 1.2 kg/m3
343.14 K, 21221 kPa | 994 ± 1.2 kg/m3
343.14 K, 21398 kPa | 994.3 ± 1.2 kg/m3
343.14 K, 21431 kPa | 994.3 ± 1.2 kg/m3
343.14 K, 21460 kPa | 994.4 ± 1.2 kg/m3
343.14 K, 21488 kPa | 994.4 ± 1.2 kg/m3
343.14 K, 21522 kPa | 994.5 ± 1.2 kg/m3
343.14 K, 21550 kPa | 994.3 ± 1.2 kg/m3
343.14 K, 21578 kPa | 994.5 ± 1.2 kg/m3
343.14 K, 21611 kPa | 994.5 ± 1.2 kg/m3
343.14 K, 21640 kPa | 994.4 ± 1.2 kg/m3
343.14 K, 21669 kPa | 994.4 ± 1.2 kg/m3
343.14 K, 21702 kPa | 994.5 ± 1.2 kg/m3
343.14 K, 21732 kPa | 994.4 ± 1.2 kg/m3
343.14 K, 21760 kPa | 994.6 ± 1.2 kg/m3
343.14 K, 21795 kPa | 994.6 ± 1.2 kg/m3
343.14 K, 21825 kPa | 994.6 ± 1.2 kg/m3
343.14 K, 21856 kPa | 994.6 ± 1.2 kg/m3
343.14 K, 21885 kPa | 994.7 ± 1.2 kg/m3
343.14 K, 21920 kPa | 994.7 ± 1.2 kg/m3
343.14 K, 21949 kPa | 994.6 ± 1.2 kg/m3
343.14 K, 21979 kPa | 994.6 ± 1.2 kg/m3
343.14 K, 22008 kPa | 994.7 ± 1.2 kg/m3
343.14 K, 22044 kPa | 994.8 ± 1.2 kg/m3
343.14 K, 22073 kPa | 994.7 ± 1.2 kg/m3
343.14 K, 22109 kPa | 994.9 ± 1.2 kg/m3
343.14 K, 22139 kPa | 994.8 ± 1.2 kg/m3
343.14 K, 22169 kPa | 994.8 ± 1.2 kg/m3
